One compound from patent US20090176888A1, “COMPOSITION COMPRISING PHYTOSPHINGOSINE OR DERIVATIVE THEREOF” (KOREA INSTITUTE OF RADIOLOGICAL & MEDICAL SCIENCES, priority 2003, published 2009) can be followed below.

What is called LD50 is the dose expected to kill half of the subjects tested.

The subject of series [1] is human lung cancer cells (NCI-H460). Kind of series: Apoptosis test (Sub G1, propidium iodide, flow cytometry). In kind it is cell-based. As for the experimental part:
Cancer cells as used in the experiment were human lung cancer cells (NCI-H460, Korean Cell Line Bank), human breast cancer cells (MDA-MB-231, American Type Culture Collection (ATCC)), human uterine cervical cancer cells (HeLa, Korean Cell Line Bank), and blood cancer cells (Jurkat, ATCC). These cancer cells were cultured in RPMI 1640 media containing 10% FBS, penicillin, and streptomycin (GIBCO BRL).
The apoptosis tests were carried out at human lung cancer cells, breast cancer cells, uterine cervical cancer cells, and blood cancer cells as follows:
Phytosphingosine or a derivative thereof was dissolved in DMSO. Samples of the resultant solution of different concentration levels (1, 2, 5, 10, 15, 20 μg/ml) were prepared. According to the following treatment schedule, phytosphingosine treated cancer cells were cultured, washed with PBS (phosphate buffered saline), and fixed with 70% ethanol. The fixed cells were again washed with PBS, suspended in PBS, and 1 mg/ml of RNase was added thereto. Then, DNA was stained with 50 μg/ml of propidium iodide fluorescent dye and the change in the Sub G1 was analyzed by flow cytometry (Becton DICKINSON). The Sub G1, a marker of apoptotic cell death, means DNA distribution lower than that in the G1 phase of cell cycle.
(1-1) In order to determine an anticancer effect of phytosphingosine, 5 ml of 10 μg/ml of phytosphingosine was added to respective dishes containing lung cancer cells, breast cancer cells, uterine cervical cancer cells, and blood cancer cells.
(1-2) In order to examine a correlation of an anticancer effect with the phytosphingosine concentration and post-treatment culture time, each 5 ml of 2, 5, 10, and 15 μg/ml of phytosphingosine was added to respective human uterine cervical cancer cell-containing dishes and human breast cancer cell-containing dishes. In addition, each 5 ml of 5, 10, 15, and 20 μg/ml of phytosphingosine was added to respective human lung cancer cell-containing dishes, and each 5 ml of 1, 5, 10, and 20 μg/ml of phytosphingosine was added to respective human blood cancer cell-containing dishes.
(1-3) An anticancer effect of phytosphingosine derivatives was determined in the same manner as mentioned in (1-1) and (1-2) except using 5 μg/ml of C4PS, C6PS, C8PS, and C12PS.
In general terms: In flow cytometry, cells or beads pass a laser one at a time.

Series [2] has as its system human uterine cervical cancer cells (NCI-H460 cells). Kind of series: In vivo animal test, tumor volume in transplanted nude mice (phytosphingosine alone). As to conditions: FIG. 11. As for the experimental part:
Nude mice (body weight: about 20 g) were randomized into 2 groups: a first group is for a control group and a second group is for treatment with phytosphingosine. The femoral region of the nude mice was transplanted with human uterine cervical cancer cells ([…]). Then, tumor volume was allowed to reach a level of […]. A 50 mg/kg solution of phytosphingosine in an olive oil was orally administered to the second group for one week on a daily basis.

The nature of series [3]: Oral or transdermal toxicity tests. As to conditions: rat, in vivo, other: oral or transdermal, rats.
Series [4] relates to human uterine cervical cancer cells (HeLa). Kind of series: Apoptosis test (Sub G1, propidium iodide, flow cytometry). In kind it is cell-based. As for the experimental part:
(§1) Cancer cells as used in the experiment were human lung cancer cells (NCI-H460, Korean Cell Line Bank), human breast cancer cells (MDA-MB-231, American Type Culture Collection (ATCC)), human uterine cervical cancer cells (HeLa, Korean Cell Line Bank), and blood cancer cells (Jurkat, ATCC). These cancer cells were cultured in RPMI 1640 media containing 10% FBS, penicillin, and streptomycin (GIBCO BRL). The apoptosis tests were carried out at human lung cancer cells, breast cancer cells, uterine cervical cancer cells, and blood cancer cells as follows: Phytosphingosine or a derivative thereof was dissolved in DMSO. Samples of the resultant solution of different concentration levels (1, 2, 5, 10, 15, 20 μg/ml) were prepared. According to the following treatment schedule, phytosphingosine treated cancer cells were cultured, washed with PBS (phosphate buffered saline), and fixed with 70% ethanol. The fixed cells were again washed with PBS, suspended in PBS, and 1 mg/ml of RNase was added thereto. Then, DNA was stained with 50 μg/ml of propidium iodide fluorescent dye and the change in the Sub G1 was analyzed by flow cytometry (Becton DICKINSON). The Sub G1, a marker of apoptotic cell death, means DNA distribution lower than that in the G1 phase of cell cycle. (1-1) In order to determine an anticancer effect of phytosphingosine, 5 ml of 10 μg/ml of phytosphingosine was added to respective dishes containing lung cancer cells, breast cancer cells, uterine cervical cancer cells, and blood cancer cells. (1-2) In order to examine a correlation of an anticancer effect with the phytosphingosine concentration and post-treatment culture time, each 5 ml of 2, 5, 10, and 15 μg/ml of phytosphingosine was added to respective human uterine cervical cancer cell-containing dishes and human breast cancer cell-containing dishes. In addition, each 5 ml of 5, 10, 15, and 20 μg/ml of phytosphingosine was added to respective human lung cancer cell-containing dishes, and each 5 ml of 1, 5, 10, and 20 μg/ml of phytosphingosine was added to respective human blood cancer cell-containing dishes.

Series [5] deals with human breast cancer cells (MDA-MB-231). The description is as above. In kind it is cell-based. The protocol: as §1
Where [6] appears, read: 10 μg/ml phytosphingosine, test (1-1), FIG. 1.

Each structure is given as a SMILES string.

As for `CCCCCCCCCCCCCC[C@@H](O)[C@@H](O)[C@@H](N)CO` [phytosphingosine], the apoptosis in series [1] (10 μg/ml or more, culture of 6 hours or more, FIG. 5) is listed as 50%; in series [1] (10 μg/ml, at 3-6 hours after treatment) it was at least 50%; in series [4] (15 μg/ml or more, culture of 12 hours or more, FIG. 3), at least 50%; in series [4] (15 μg/ml, at 12-18 hours after treatment), 50%; in series [5] (10 μg/ml or more, culture of 12 hours or more, FIG. 4), at least 50%; in series [5] (10 μg/ml, at 12 hours after treatment) it was 50%. This compound also registered an apoptotic rate in series [1] (setting [6]) of at least 50%. In addition, in series [2] (50 mg/kg/day oral for one week, at the 40th day), the “inhibitory effect on tumor growth compared to control group” value is “potent inhibitory effect on tumor growth”. In addition, the tumor size change entry in series [2] (50 mg/kg/day oral in olive oil for one week, versus control group) was “did not show changes for 20 days”. In addition, the LD50 in series [3] was at least 2000 mg/kg. The “anticancer effect compared to untreated cancer cells” value in series [4] (setting [6]) and in series [5] (setting [6]) was “excellent anticancer effects” throughout.
